# Measurements from patent US20210269451A1, “PYRIDINYL HETEROCYCLYL COMPOUNDS FOR THE TREATMENT OF AUTOIMMUNE DISEASE” (Hoffmann-La Roche Inc., priority 2018, published 2021).
# Experiments:
# [1] = Human microsome stability assay; type: in vitro ADME; settings: 1 μM test compound, 0.5 mg/mL liver microsomal protein, 37° C.
# Method: Human microsome stability assay
# The human microsomal stability assay is used for early assessment of metabolic stability of a test compound in human liver microsomes.
# Human liver microsomes (Cat.NO.: 452117, Corning, USA;Cat.NO.:H2610, Xenotech, USA) were preincubated with test compound for 10 minutes at 37° C. in 100 mM potassium phosphate buffer, pH 7.4. The reactions were initiated by adding NADPH regenerating system. The final incubation mixtures contained 1 μM test compound, 0.5 mg/mL liver microsomal protein, 1 mM MgCl2, 1 mM NADP, 1 unit/mL isocitric dehydrogenase and 6 mM isocitric acid in 100 mM potassium phosphate buffer, pH 7.4. After incubation times of 0, 3, 6, 9, 15 and 30 minutes at 37° C., 300 μL of cold acetonitrile (including internal standard) was added to 100 μL incubation mixture to terminate the reaction. Following precipitation and centrifugation, the amount of compound remaining in the samples were determined by LC-MS/MS. Controls of no NADPH regenerating system at zero and 30 minutes were also prepared and analyzed.
# hTLR9 = molecular target: T1, hTLR9 (Homo sapiens, UniProt Q9NR96); parameters: host or cells: HEK; settings: disclosed in US20150105370; read-out: HEK/hTLR9 IC50; cited from earlier work
# T1 sequence (Q9NR96 26-1032): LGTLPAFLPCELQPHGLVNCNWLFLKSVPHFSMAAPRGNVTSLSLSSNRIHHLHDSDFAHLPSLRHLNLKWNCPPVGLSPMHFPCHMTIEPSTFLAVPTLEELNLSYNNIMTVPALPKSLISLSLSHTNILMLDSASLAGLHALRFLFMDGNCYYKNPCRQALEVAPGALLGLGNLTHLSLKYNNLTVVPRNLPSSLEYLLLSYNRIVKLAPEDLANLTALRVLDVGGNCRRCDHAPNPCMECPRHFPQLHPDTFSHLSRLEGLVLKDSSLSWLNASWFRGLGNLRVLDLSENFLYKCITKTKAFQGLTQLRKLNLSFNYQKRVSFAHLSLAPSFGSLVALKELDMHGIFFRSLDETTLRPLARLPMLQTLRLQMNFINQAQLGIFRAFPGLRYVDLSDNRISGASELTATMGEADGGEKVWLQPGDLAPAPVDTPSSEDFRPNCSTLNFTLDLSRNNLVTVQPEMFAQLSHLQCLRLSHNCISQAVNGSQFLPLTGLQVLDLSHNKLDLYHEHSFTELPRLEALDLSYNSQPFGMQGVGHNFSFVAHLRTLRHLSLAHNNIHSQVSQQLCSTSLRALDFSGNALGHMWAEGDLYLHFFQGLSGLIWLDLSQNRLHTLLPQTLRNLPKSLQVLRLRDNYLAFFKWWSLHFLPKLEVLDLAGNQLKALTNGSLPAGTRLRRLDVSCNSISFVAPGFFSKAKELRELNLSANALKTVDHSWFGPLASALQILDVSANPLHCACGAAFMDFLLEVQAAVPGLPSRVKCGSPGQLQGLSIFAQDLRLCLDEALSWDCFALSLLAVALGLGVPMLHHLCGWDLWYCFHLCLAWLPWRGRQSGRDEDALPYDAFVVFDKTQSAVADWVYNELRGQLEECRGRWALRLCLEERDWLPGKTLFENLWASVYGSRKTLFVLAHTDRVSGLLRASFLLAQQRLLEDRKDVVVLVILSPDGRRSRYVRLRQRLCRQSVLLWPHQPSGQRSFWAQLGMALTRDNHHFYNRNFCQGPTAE
# hERG channel = molecular target: T2, hERG channel (Homo sapiens, UniProt Q12809); assay: hERG channel inhibition assay (patch-clamp, CHOhERG cells); type: cell-based; settings: safety ratio;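 as to hERG IC20/TLR7 IC50: ratio above 30 indicates an adequate safety window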;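 as to hERG IC20/TLR8 IC50: ratio above 30 indicates an adequate safety window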
# T2 construct: expressed in transfected cells; host or cells: CHO (Chinese hamster ovary), CHOhERG
# T2 sequence (Q12809 whole entry): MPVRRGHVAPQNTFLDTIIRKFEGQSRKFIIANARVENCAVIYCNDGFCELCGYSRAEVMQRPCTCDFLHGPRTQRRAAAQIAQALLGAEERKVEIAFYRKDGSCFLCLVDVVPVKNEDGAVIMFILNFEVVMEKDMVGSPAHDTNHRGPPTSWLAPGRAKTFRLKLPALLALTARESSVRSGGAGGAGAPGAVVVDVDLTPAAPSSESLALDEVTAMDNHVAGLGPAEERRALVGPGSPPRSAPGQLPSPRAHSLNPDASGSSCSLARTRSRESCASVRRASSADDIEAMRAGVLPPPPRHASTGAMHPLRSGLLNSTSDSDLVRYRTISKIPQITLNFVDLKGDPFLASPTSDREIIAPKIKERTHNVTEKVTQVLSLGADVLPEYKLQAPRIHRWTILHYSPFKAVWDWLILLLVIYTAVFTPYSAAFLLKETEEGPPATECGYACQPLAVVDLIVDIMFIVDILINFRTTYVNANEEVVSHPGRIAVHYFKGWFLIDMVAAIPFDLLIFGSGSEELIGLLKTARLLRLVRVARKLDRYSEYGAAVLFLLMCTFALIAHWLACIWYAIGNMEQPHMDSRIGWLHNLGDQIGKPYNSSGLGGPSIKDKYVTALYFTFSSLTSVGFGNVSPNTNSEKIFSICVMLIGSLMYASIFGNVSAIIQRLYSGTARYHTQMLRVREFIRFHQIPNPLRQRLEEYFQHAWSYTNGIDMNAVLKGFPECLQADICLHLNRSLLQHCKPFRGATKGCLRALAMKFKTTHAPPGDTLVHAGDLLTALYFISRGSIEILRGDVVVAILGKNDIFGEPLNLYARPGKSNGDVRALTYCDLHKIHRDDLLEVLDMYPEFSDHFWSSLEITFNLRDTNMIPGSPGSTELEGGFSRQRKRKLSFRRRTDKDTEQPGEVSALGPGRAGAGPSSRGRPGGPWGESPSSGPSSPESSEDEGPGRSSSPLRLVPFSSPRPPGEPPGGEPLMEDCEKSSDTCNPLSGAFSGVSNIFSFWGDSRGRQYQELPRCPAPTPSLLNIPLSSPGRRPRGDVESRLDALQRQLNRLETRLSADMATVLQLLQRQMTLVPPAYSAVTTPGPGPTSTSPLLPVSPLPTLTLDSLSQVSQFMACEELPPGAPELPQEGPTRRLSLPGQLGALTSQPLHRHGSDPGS
# Method: hERG channel inhibition assay:
# The hERG K^+ channels were cloned in humans and stably expressed in a CHO (Chinese hamster ovary) cell line. CHOhERG cells were used for patch-clamp (voltage-clamp, whole-cell) experiments. Cells were stimulated by a voltage pattern to activate hERG channels and conduct IKhERG currents (rapid delayed outward rectifier potassium current of the hERG channel). After the cells were stabilized for a few minutes, the amplitude and kinetics of IKhERG were recorded at a stimulation frequency of 0.1 Hz (6 bpm). Thereafter, the test compound was added to the preparation at increasing concentrations. For each concentration, an attempt was made to reach a steady-state effect, usually, this was achieved within 3-10 min at which time the next highest concentration was applied. The amplitude and kinetics of IKhERG are recorded in each concentration of the drug which were compared to the control values (taken as 100%). (references: Redfern W S, Carlsson L, Davis A S, Lynch W G, MacKenzie I, Palethorpe S, Siegl P K, Strang I, Sullivan A T, Wallis R, Camm A J, Hammond T G. 2003; Relationships between preclinical cardiac electrophysiology, clinical QT interval prolongation and torsade de pointes for a broad range of drugs: evidence for a provisional safety margin in drug development. Cardiovasc. Res. 58:32-45, Sanguinetti M C, Tristani-Firouzi M. 2006; hERG potassium channels and cardiac arrhythmia. Nature 440:463-469, Webster R, Leishman D, Walker D. 2002; Towards a drug concentration effect relationship for QT prolongation and torsades de pointes. Curr. Opin. Drug Discov. Devel. 5:116-26).
# CYP2D6 = molecular target: T3, CYP2D6 (Homo sapiens, UniProt P10635); assay: CYP inhibition assay in human liver microsome; type: in vitro ADME; settings: human liver microsomes, probe dextromethorphan, dextromethorphan substrate, percentage inhibition <0: not or weak inhibitor, read-out: CYP 2D6 inhibition %@10 μM
# T3 construct: tissue BD-Gentest 452117; host or cells: human liver microsomes
# T3 sequence (P10635 whole entry): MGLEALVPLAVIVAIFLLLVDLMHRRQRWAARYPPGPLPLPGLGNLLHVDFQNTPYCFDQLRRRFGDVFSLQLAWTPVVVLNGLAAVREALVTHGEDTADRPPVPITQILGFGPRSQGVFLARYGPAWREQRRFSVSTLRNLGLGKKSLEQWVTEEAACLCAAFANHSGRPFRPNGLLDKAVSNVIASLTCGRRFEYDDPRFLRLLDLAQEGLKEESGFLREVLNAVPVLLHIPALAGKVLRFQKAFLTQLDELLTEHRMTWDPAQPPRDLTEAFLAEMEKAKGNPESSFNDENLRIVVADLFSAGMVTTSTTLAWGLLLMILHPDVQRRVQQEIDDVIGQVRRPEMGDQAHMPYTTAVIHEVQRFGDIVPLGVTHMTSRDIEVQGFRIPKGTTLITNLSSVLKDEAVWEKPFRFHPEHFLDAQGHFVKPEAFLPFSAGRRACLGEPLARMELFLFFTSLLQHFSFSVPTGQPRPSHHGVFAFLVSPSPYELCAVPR
# Method: The compounds would be desirable to have minimal DDI liabilities. Therefore, the effects of compounds of formula (I) or (Ia) on CYP2D6 are determined.
# This is a high throughput screening assay used for assessment of reversible inhibition of CYP2D6 activity of test compounds in human liver microsome (HLM) in early discovery stage.
# 10 mM DMSO stock solutions of test compounds were diluted in DMSO to generate 2 mM intermediate stock solution. 250 nL of intermediate stock solution were transferred in duplicate into 3 separate 384 well microtitre plates (assay-ready plates). A mixture of HLM and each substrate was made up. 45 μL of HLM substrate mix was then transferred to each well of an assay ready plate and mixed. The negative (solvent) and positive control (standard inhibitor for CYP 2D6) were included in each assay ready plate. The assay ready plate was warmed to 37° C. in an incubator over 10 minutes. 5 μL pre-warmed NADPH regenerating system was added to each incubation well to start the reaction. Final incubation volume was 50 μL. The assay plate then was placed back in the 37° C. incubator. After 10 minutes incubation, incubates were quenched by addition of 50 μL 100% acetonitrile containing internal standards (20 ng/mL D3-Dextrorphan). The supernatants were collected for RapidFire/MS/MS analysis.
# RapidFire online solid phase extraction/sample injection system (Agilent) coupled with API4000 triple quadrupole mass spectrometer (AB Sciex) were used for sample analysis. The mobile phase composed of acetonitrile and water supplemented with 0.1% formic acid. A C4 solid phase extraction cartridge is used for sample separation. MS detection is achieved in positive ion MRM mode.
# Data analysis Peak areas for substrate, metabolite and internal standard are determined using the RapidFire integrator software (version 3.6.12009.12296). Peak area ratios (PAR) of metabolite and internal standard (stable-labelled metabolite) are then calculated. The measurement window for each experiment is then defined:
# PAR (0% activity), average PAR for all incubations containing concentrated inhibitor; Par (100% activity), average PAR for all incubations containing no inhibitor (DMSO controls);
# % Activity (test inhibitor)=
# =[PAR(test inhibitor)-PAR(0% activity)]/[PAR(100% activity)-PAR(0% activity)];
# % Inhibition (test inhibitor)=100-% Activity (test inhibitor).
Clearance of Human microsome [1] [mL/min/kg],SMILES,IC50 (hTLR9) [µM],hERG IC20/TLR7 IC50 (hERG channel),hERG IC20/TLR9 IC50 (hERG channel),also measured
7.61,Cc1cc(N2C[C@@H](O)[C@H](NC[C@H]3CN(c4ccc(C#N)c5ncccc45)C[C@@H](C)O3)C2)cc(CO)n1 [Example 31],–,–,–,–
–,Cc1nn(C)cc1S(=O)(=O)NC1CCN(C[C@H]2CN(c3ccc(C#N)c4ncccc34)C[C@@H](C)O2)CC1 [ER-894160],> 10,–,–,–
–,"C[C@@H]1CN(c2ccc(C#N)c3ncccc23)C[C@H](CN2CCN(c3ccncc3)CC2)O1 [ER-888286, reference compound]",> 2,0.3,0.2,–
10.84,"COc1ccc(N2CCN(C[C@H]3CN(c4ccc(C#N)c5ncccc45)C[C@@H](C)O3)CC2)cc1 [Example R1, 5-[(2S,6R)-2-[[4-(4-methoxyphenyl)piperazin-1-yl]methyl]-6-methyl-morpholin-4-yl]quinoline-8-carbonitrile, reference compound]",–,9.3,0.1,hERG IC20/TLR8 IC50 (hERG channel): 6.2
–,C[C@@H]1CN(c2ccc(C#N)c3ncccc23)C[C@H](CN2CC[C@@H](NC(=O)c3ccccc3)C2)O1 [ER-894544],> 6.2,–,–,–
–,"C[C@@H]1CN(c2ccc(C#N)c3ncccc23)C[C@H](CN2CCN(c3ccc(Cl)cc3)CC2)O1 [Example R2, 5-[(2S,6R)-2-[[4-(4-chlorophenyl)piperazin-1-yl]methyl]-6-methyl-morpholin-4-yl]quinoline-8-carbonitrile, reference compound]",–,1.3,0.0,hERG IC20/TLR8 IC50 (hERG channel): 0.8
7.72,Cc1cc(N2CC[C@H](NC[C@H]3CN(c4ccc(C#N)c5ncccc45)C[C@@H](C)O3)[C@@H](O)C2)cc(CO)n1 [Example 26],–,–,–,–
7.67,Cc1cc(N2CC[C@@H](O)[C@H](NC[C@H]3CN(c4ccc(C#N)c5ncccc45)C[C@@H](C)O3)C2)cc(CO)n1 [Example 27],–,–,–,–
–,"C[C@@H]1CN(c2ccc(C#N)c3ncccc23)C[C@H](CN2CCN(c3ccccc3)CC2)O1 [ER-887258, reference compound]",> 2,8.1,0.3,–
–,Cc1cc(N2CCN(C[C@H]3CN(c4ccc(C#N)n5nccc45)C[C@@H](C)O3)C(Cc3ccccc3)C2)cc(C)n1 (some centres unmarked) [Example 39],–,–,–,"inhibition at 10 min, 10 μM (CYP2D6): 7.5%"
–,C[C@@H]1CN(c2ccc(C#N)c3ncccc23)C[C@H](CN2CC(NS(=O)(=O)c3ccc(F)cc3)C2)O1 [ER-894155],> 10,–,–,–
–,"C[C@@H]1CN(c2ccc(C#N)c3ncccc23)C[C@H](CN2CCN(c3ccccn3)CC2)O1 [ER-888285, reference compound]",> 2,8.4,0.5,–
